Measurements taken from patent US5506354A, “Imidazolylpiperazinyl steroids” (The Upjohn Company, priority 1992, dated 1996).
Structures can show the parent of a compound that is named as a salt.

Columns and labels:
[1] = test system: AcylCoA:Cholesterol Acyltransferase (ACAT); assay: AcylCoA:Cholesterol Acyltransferase (ACAT) Inhibition Assay; type: cell-based; design: key to inhibition of ACAT (activity in words): compounds which inhibit ACAT activity equal to, or greater than, that of chloropromazine are considered "active"; details: for inhibition of ACAT (activity in words): preferred Fu5AH cells, compared with chloropromazine
Text: ACAT esterifies arterial cholesterol which is a key reaction in the development of atherosclerosis. The procedure of Bell, Can. […] In the ACAT assay it is preferred to use Fu5AH cells, see Lipids 9, 526 (1974). According to this procedure, compounds which inhibit ACAT activity equal to, or greater than, that of chloropromazine are considered "active".

[2] = test system: serum and arterial cholesterol in quail fed an atherogenic diet; assay: Antiatherosclerosis Screen in Susceptible to Experimental Atherosclerosis (SEA) Japanese Quail; type: in vivo
Method: While not necessary, some minor modifications for extraction of cholesterol from the artery have been made. Time are as follows: frozen arteries are homogenized in hexane/isopropanol (3/2) and the volume adjusted with Triton 100 solution (1.5% in hexane/isopropanol) to 7 ml. After standing 12 hr at 20°-25°, the supernatant, obtained by low speed centrifugation is evaporated until dry and thru the residue is suspended in 0.5 ml of 5% Triton 100 in isopropanol. This suspension is incubated for 10 min at 45° to dissolve the material. This solution as well as the diluted serum samples are analyzed for cholesterol by standard clinical chemistry analyzer methods. According to the above procedure compounds which decrease serum or arterial cholesterol >30% are considered to be "active".

arachidonic acid = assay: Arachidonic Acid Antagonism Assay (AAAA), LD50 of sodium arachidonate; type: in vivo, Charles River male CF-1 mice; details: 100 mg/kg; test compound IV
Summary of the method: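 Male CF-1 mice (18–22 g) received test compound IV in 1.0% Tween-80/0.1% HCl. LD50 was derived by Spearman-Karber (log dose interval 0.05, N=6), and activity was defined as LD50 elevation outside the control's 95% confidence interval.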

MDA formation = assay: Malonyldialdehyde (MDA) Formation Assay (rat brain synaptosomes); type: biochemical; details: 10 min at 37°, pH 7.0; active = 50% or more at 200 μM or less
Method: Since lipid peroxidation is involved in the pathophysiology of center nervous system trauma, compounds which inhibit MDA formation are useful in treating the conditions listed below.
While not necessary to determine MDA formation, the above assays have been modified as follows: rat brain synaptosomes are prepared as described in the Example about the conjugated diene assay, except that the final wash of the synaptosomes and final suspension are in physiological (normal) saline in which the pH has been adjusted to 7.0. The synaptosomes are incubated for 10 min at 37° in physiological (normal) saline pH 7.0 (total volume=100 ul) containing; 10 ul synaptosomal suspension, 10% DMSO plus or minus drug, 150 uM Fe^+++ and 50 uM Fe++. The incubation is started by the rapid addition of iron to the otherwise complete reaction. The iron solutions are prepared fresh as ferric chloride and ferrous ammonium sulfate in argon-purged water. Following the 10 min incubation, the reaction is stopped by the addition of 500 ul ice-cold 12% trichloroacetic acid prepared in 0.5N hydrochloric acid. Water (300 ul) is then added along with 100 ul of freshly prepared thiobarbituric acid (3.3% in 0.5N sodium hydroxide) and 10 ul of 5 mM desferrioxamine. The sample is then heated in a boiling water bath for 20 minutes. The samples are cooled and centrifuged for 15 minutes at 1500×g and the absorbence of the supernatant fraction is read at 532 nm. The % inhibition of MDA formation is calculated by dividing the absorbance of sample containing drug by the absorbence of samples incubated without drug. Reaction blanks are samples incubated in the absence of iron. A compound that inhibits MDA formation by 50% or more at a concentration of 200 μM or less is considered "active".

mucous secretion = assay: Inhibition of mucous secretion assay of Johnson; details: induced mucous secretions
Text: According to this procedure compounds which inhibit or block enhancement of induced mucous secretions when tested are considered to be "active".

mouse head injury = assay: in vivo mouse head injury procedure of Hall (1 hr neurological recovery, grip test); details: statistically significant (p<0.05)

In the case of `C[C@]12CCC(=O)C=C1CC[C@@H]1C2=CC[C@@]2(C)[C@H]1CC[C@]2(O)C(=O)CN1CCN(c2ccccn2)CC1.Cl` [Example 3, 17α-Hydroxy-21-[4-(2-pyridinyl)-1-piperazinyl]pregna-4,9(11)-diene-3,20-dione hydrogen chloride salt], the “inhibition of ACAT (activity in words)” value [1] is reported as “active”, the “reduction of arterial cholesterol (in words)” value ([2]; artery) is reported as “demonstrates reduction of serum and arterial cholesterol” and the “reduction of serum cholesterol (in words)” value ([2]; serum) is reported as “demonstrates reduction of serum and arterial cholesterol”.

In the case of `CCN(CC)c1nc(N2CCCCC2)cc(N2CCN(CC(=O)[C@@]3(O)CC[C@H]4[C@@H]5CCC6=CC(=O)CC[C@]6(C)C5=CC[C@@]43C)CC2)n1.Cl.O` [Example 17, 17α-Hydroxy-21-[4-[2-(diethylamino)-6-(1-piperidinyl)-4-pyrimidinyl]-1-piperazinyl]pregna-4,9(11)-diene-3,20-dione hydrochloride hydrate], the “% of Control LD50 100 mg/kg” value (arachidonic acid) is reported as 150%, the “inhibition of MDA formation (activity in words)” value (MDA formation) is reported as “demonstrate such activity” and the “% Inhibition of ACAT” value ([1]; 5 μg/ml) is reported as 32.2%. For the same compound, the “inhibition of ACAT (activity in words)” value [1] was “active”.

`CCN(CC)c1cc(N2CCN(CC(=O)[C@@]3(O)[C@H](C)C[C@H]4[C@@H]5CCC6=CC(=O)C=C[C@]6(C)C5=CC[C@@]43C)CC2)nc(N(CC)CC)n1.Cl.O` [Example 18, 21-[4-[2,6-Bis(diethylamino)-4-pyrimidinyl]-1-piperazinyl]-17α-hydroxy-16α-methylpregna-1,4,9(11)-triene-3,20-dione hydrochloride hydrate] was tested, and the “inhibition of ACAT (activity in words)” value [1] was “active” and the “inhibition of mucous secretion (activity in words)” value (mucous secretion) was “demonstrate such activity”.

With `CS(=O)(=O)O.C[C@@H]1C[C@H]2[C@@H]3CCC4=CC(=O)C=C[C@]4(C)C3=CC[C@]2(C)[C@H]1C(=O)CN1CCN(c2cc(N3CCCC3)nc(N3CCCC3)n2)CC1.O` [Example 109, 16α-Methyl-21-[4-[2,6-bis(1-pyrrolidinyl)-4-pyrimidinyl]-1-piperazinyl]-pregna-1,4,9(11)-triene-3,20-dione-monomethanesulfonate monohydrate] the “% Increase in 1 hr Post-Injury Grip Test Scores After 3 mg/kg” value (mouse head injury) was 184.4%.

In the case of `CCNc1cccnc1N1CCN(CC(=O)[C@H]2[C@H](C)C[C@H]3[C@@H]4CCC5=CC(=O)C=C[C@]5(C)C4=CC[C@@]32C)CC1` [Example 127, 21-[4-[3-(Ethylamino)-2-pyridinyl]piperazinyl]-16α-methylpregna-1,4,9(11)-triene-3,20-dione hydrochloride], the “% Increase in 1 hr Post-Injury Grip Test Scores After 3 mg/kg” value (mouse head injury) is reported as 200.8%.
